The text below walks through data of ChEMBL document CHEMBL3046710, “Synthesis and bioactivity evaluation of novel spiromesifen derivatives” (2012).

For experiment [1], the system named is Aphis fabae. The experiment can be described thus: Insecticidal activity against third-instar nymph of Aphis fabae (black bean aphids) assessed as mortality after 72 hr by spray method. The format is functional. Particulars: for LC50: Aphis fabae, 72 h.
In experiment [2] the test system is Mythimna separata. The experiment can be described thus: Insecticidal activity against third-instar larvae of Mythimna separata (Oriental armyworm) assessed as mortality after 72 hr by spray method. The format is functional.
Experiment [3] has as its system Tetranychus cinnabarinus. The experiment in a line: Acaricidal activity against adult Tetranychus cinnabarinus (carmine spider mite) assessed as mortality after 72 hr by immersion method. The format is functional.
Experiment [4] deals with Aphis fabae. The experiment in a line: Insecticidal activity against third-instar nymph of Aphis fabae (black bean aphids) assessed as mortality at 4 mg/L after 72 hr by spray method. The format is functional.
The test system of experiment [5] is Tetranychus cinnabarinus. The experiment can be described thus: Ovolarvicidal activity against […] Tetranychus cinnabarinus (carmine spider mite) assessed as reduction in hatched eggs measured 6 days after hatching by immersion method. The format is functional. The conditions noted are these: for LC50: Tetranychus cinnabarinus, 144 h.
Experiment [6] deals with Mythimna separata. The experiment can be described thus: Insecticidal activity against third-instar larvae of Mythimna separata (Oriental armyworm) assessed as mortality at 100 mg/L after 72 hr by spray method. The format is functional, organism-based.
Experiment [7] concerns Mythimna separata. The experiment can be described thus: Insecticidal activity against third-instar larvae of Mythimna separata (Oriental armyworm) assessed as mortality at 25 mg/L after 72 hr by spray method. The format is functional, organism-based.
Experiment [8] concerns Mythimna separata. The experiment in a line: Insecticidal activity against third-instar larvae of Mythimna separata (Oriental armyworm) assessed as mortality at 1000 mg/L after 72 hr by spray method. The format is functional.
Experiment [9] relates to Tetranychus cinnabarinus. The experiment in a line: Acaricidal activity against adult Tetranychus cinnabarinus (carmine spider mite) assessed as mortality at 6.25 mg/L after 72 hr by immersion method. The format is functional.
For experiment [10], the system named is Tetranychus cinnabarinus. The experiment can be described thus: Acaricidal activity against adult Tetranychus cinnabarinus (carmine spider mite) assessed as mortality at 600 mg/L after 72 hr by immersion method. The format is functional.

≈ marks a conversion by molar mass, not a printed value. Calls of active or inactive are those of the source. The rule behind the calls is not given here.

For `CCCCCCC(=O)C1=C(c2c(C)cc(C)cc2C)C(=O)OC12CCCC2`, the LC50 in experiment [1] came out at 5 µg/mL (≈ 13.6 µM); in experiment [2] it was 101 µg/mL (≈ 274 µM); in experiment [3], 26 µg/mL (≈ 70.6 µM).

For `Cc1cc(C)c(C2=C(OC(=O)CC(C)(C)C)C3(CCCC3)OC2=O)c(C)c1` [SPIROMESIFEN], the 50% lethal concentration (LC50) in [1] was found to be 5 µg/mL (≈ 13.5 µM); in [2] it was 101 µg/mL (≈ 273 µM); in experiment [3], 6.26 µg/mL (≈ 16.9 µM); in experiment [5], 4.32 µg/mL (≈ 11.7 µM). Further, the mortality at 4 µg/mL in experiment [4] was 10.9%. Moreover, in experiment [5], the LC90 was 31.07 µg/mL (≈ 83.9 µM).

`Cc1ccc(C(=O)C2=C(c3c(C)cc(C)cc3C)C(=O)OC23CCCC3)cc1`: the LC50 is over 500 µg/mL in experiment [1], over 1000 µg/mL in experiment [2] and over 600 µg/mL in experiment [3].

On to `CO/N=C(/C(=O)C1=C(c2c(C)cc(C)cc2C)C(=O)OC12CCCC2)c1ccccc1`, for which the results for the LC50 in experiment [1], in experiment [2] and in experiment [3] were 21 µg/mL (≈ 50.3 µM), 26 µg/mL (≈ 62.3 µM) and 26 µg/mL (≈ 62.3 µM), respectively.

For the molecule `Cc1cc(C)c(C2=C(C(=O)CC(C)(C)C)C3(CCCC3)OC2=O)c(C)c1`, the LC50 in [1] was found to be 5 µg/mL (≈ 14.1 µM); in experiment [2], 101 µg/mL (≈ 285 µM); in [3], 26 µg/mL (≈ 73.3 µM).

For `Cc1cc(C)c(C2=C(C(=O)c3ccc(F)cc3)C3(CCCC3)OC2=O)c(C)c1`, the figures for the LC50 in experiment [1], in [2] and in [3] were 21 µg/mL (≈ 55.5 µM), 101 µg/mL (≈ 267 µM) and 101 µg/mL (≈ 267 µM), respectively.

As for `Cc1cc(C)c(C2=C(C(=O)/C=C/c3ccccc3)C3(CCCC3)OC2=O)c(C)c1`, the median lethal concentration (LC50) in experiment [1] is 5 µg/mL (≈ 12.9 µM); in experiment [2] it was 26 µg/mL (≈ 67.3 µM); in experiment [3], 101 µg/mL (≈ 261 µM). For the same molecule, in [6], the outcome was Active. Besides, the outcome in experiment [7] was inactive.

With `Cc1cc(C)c(C2=C(C(=O)C(c3ccc(Cl)cc3)C(C)C)C3(CCCC3)OC2=O)c(C)c1` (centres undefined), the LC50 worked out at 101 µg/mL (≈ 224 µM) in [1], 401 µg/mL (≈ 889 µM) in experiment [2] and 101 µg/mL (≈ 224 µM) in [3].

On to `CCC(C)(C)C(=O)C1=C(c2c(C)cc(C)cc2C)C(=O)OC12CCCC2`, for which the LC50 stood at 21 µg/mL (≈ 59.2 µM) in [1], 101 µg/mL (≈ 285 µM) in experiment [2] and 6.26 µg/mL (≈ 17.7 µM) in experiment [3].

Consider `CCOC(=O)OC1=C(c2cc(C)ccc2C)C(=O)N[C@]12CC[C@@H](OC)CC2` [SPIROTETRAMAT], for which, in experiment [1], the LC90 worked out at 13.56 µg/mL (≈ 36.3 µM) and the LC50 is 5.06 µg/mL (≈ 13.5 µM). In experiment [4], the mortality at 4 µg/mL was determined as 37.9%.

For `C/C=C/C(=O)C1=C(c2c(C)cc(C)cc2C)C(=O)OC12CCCC2`, the LC50 in experiment [1] is 21 µg/mL (≈ 64.7 µM); in [2] it was 101 µg/mL (≈ 311 µM); in experiment [3], 6.26 µg/mL (≈ 19.3 µM).

As for `Cc1cc(C)c(C2=C(C(=O)c3ccccc3C)C3(CCCC3)OC2=O)c(C)c1`, the LC50 in experiment [1] was 5 µg/mL (≈ 13.4 µM); in experiment [2], 26 µg/mL (≈ 69.4 µM); in [3] it was 101 µg/mL (≈ 270 µM).

Consider `CCOC1=C(c2c(C)cc(C)cc2C)C(=O)OC12CCCC2`, for which the results for the LC50 in experiment [1], in [2] and in [3] were over 500 µg/mL, over 1000 µg/mL and over 600 µg/mL, respectively.

`CCCCC(=O)C1=C(c2c(C)cc(C)cc2C)C(=O)OC12CCCC2`: the LC50 in experiment [1] was determined as 1 µg/mL (≈ 2.94 µM); in experiment [2], 26 µg/mL (≈ 76.4 µM); in experiment [3], 6.26 µg/mL (≈ 18.4 µM). Also, the mortality at 4 µg/mL in experiment [4] amounted to 55.5%. In addition, in experiment [8], the mortality at 1000 µg/mL came to 100%.

Consider `CCC(=O)C1=C(c2c(C)cc(C)cc2C)C(=O)OC12CCCC2`, for which the values for the LC50 in experiment [1], in [2] and in [3] were 21 µg/mL (≈ 67.2 µM), 101 µg/mL (≈ 323 µM) and 6.26 µg/mL (≈ 20 µM), respectively.

As for `C=CC(=O)C1=C(c2c(C)cc(C)cc2C)C(=O)OC12CCCC2`, the 50% lethal concentration (LC50) in [1] came to 5 µg/mL (≈ 16.1 µM); in experiment [2], 26 µg/mL (≈ 83.8 µM); in experiment [3] it was 101 µg/mL (≈ 325 µM).

For `Cc1cc(C)c(C2=C(C(=O)C3C(C=C(Cl)Cl)C3(C)C)C3(CCCC3)OC2=O)c(C)c1` (centres undefined), the LC50 was 100 µg/mL (≈ 224 µM) in [1], 401 µg/mL (≈ 896 µM) in experiment [2] and over 600 µg/mL in [3].

In the case of `COC1=C(c2c(C)cc(C)cc2C)C(=O)OC12CCCC2`, the values for the LC50 in [1], in experiment [2] and in experiment [3] were over 500 µg/mL, over 1000 µg/mL and over 600 µg/mL, respectively.

Regarding `CCc1c(C)cc(OC2=C(c3c(C)cc(C)cc3C)C(=O)OC23CCCC3)cc1C`, the LC50 in [1] was over 500 µg/mL; in experiment [2], over 1000 µg/mL; in experiment [3], over 600 µg/mL.

For `CCCCCC(=O)C1=C(c2c(C)cc(C)cc2C)C(=O)OC12CCCC2`, the LC90 in experiment [1] was determined as 21.77 µg/mL (≈ 61.4 µM); in experiment [5], 56.08 µg/mL (≈ 158 µM). The LC50 in experiment [1] worked out at 1 µg/mL (≈ 2.82 µM); in experiment [2] it was 26 µg/mL (≈ 73.3 µM); in experiment [3], 6.26 µg/mL (≈ 17.7 µM); in experiment [5] it was 11.8 µg/mL (≈ 33.3 µM). In experiment [4], the mortality at 4 µg/mL worked out at 95.6%. For the same molecule, the result in experiment [6] was Active. Also, in experiment [8], the mortality at 1000 µg/mL was 100%. Also, in experiment [7], the outcome was inactive.

As for `COc1ccc(C(=O)C2=C(c3c(C)cc(C)cc3C)C(=O)OC23CCCC3)cc1`, the LC50 in [1] is 21 µg/mL (≈ 53.8 µM); in experiment [2] it was 26 µg/mL (≈ 66.6 µM); in [3], 1 µg/mL (≈ 2.56 µM). Further, the mortality at 6.25 µg/mL in experiment [9] is 55.2%.

In the case of `Cc1cc(C)c(C2=C(C(=O)c3ccccc3Cl)C3(CCCC3)OC2=O)c(C)c1`, the LC50 in [1] is 5 µg/mL (≈ 12.7 µM); in experiment [2] it was 26 µg/mL (≈ 65.8 µM); in experiment [3], over 600 µg/mL. For the same molecule, in experiment [6], the outcome was Active. Besides, in experiment [7], the result was inactive.

For `CCCC(=O)C1=C(c2c(C)cc(C)cc2C)C(=O)OC12CCCC2`, the LC50 in experiment [1] came out at 5 µg/mL (≈ 15.3 µM); in [2], 26 µg/mL (≈ 79.6 µM); in experiment [3], 6.26 µg/mL (≈ 19.2 µM). For the same molecule, the mortality at 600 µg/mL in experiment [10] turned out to be 96.6%. Further, the mortality at 1000 µg/mL in experiment [8] worked out at 100%.

For `CCC(C)(C)C(=O)OC1=C(c2ccc(Cl)cc2Cl)C(=O)OC12CCCCC2` [SPIRODICLOFEN], the mortality at 4 µg/mL in experiment [4] stood at 0%.
